In paper PMC11882969 (Nature Communications, 2025):
Values joined by “and” are separate entries in the source; they are usually repeats but may differ in a detail not shown here. Equal entries are not always repeated. Where two headings read alike, the source gives them in different places.

What was measured:
[1] = target: T1, CB1R with G protein (Gi1-3, Go) (Homo sapiens, UniProt P21554); test: GTP turnover assay (GTPase-Glo); type: biochemical; settings: replicates, sheet FigS3c
T1 construct: a N-terminal FLAG tag and C-terminal histidine tag was added to human full-length CB1; FLAG (N); histidine tag (C); made in house; host or cells: CB1R: Spodoptera frugiperda Sf9; G proteins: Trichoplusia ni Hi5
Method: Analysis of GTP turnover was performed by using a modified protocol of the GTPase-Glo^TM assay (Promega) described previously. Ligand-bound (10 μM ligand incubated for one hour at room temperature) or apo CB1R (1 μM) was mixed with G protein (1 μM) in 20 mM HEPES, pH 7.5, 50 mM NaCl, 0.01% L-MNG/0.001% CHS, 100 μM TCEP, 10 μM GDP and 10 μM GTP and incubated at room temperature. GTPase-Glo-reagent was added to the sample after incubation for 60 min (Gi1-3) and 20 min for (Go). Luminescence was measured after the addition of detection reagent and incubation for 10 min at room temperature using a SpectraMax Paradigm plate reader.

[2] = target: panel of 320 non-olfactory GPCRs (Homo sapiens, UniProt P16473); type: cell-based
[3] = target: panel of 320 non-olfactory GPCRs (Homo sapiens, UniProt P21554); type: cell-based
[4] = target: panel of 320 non-olfactory GPCRs (Homo sapiens, UniProt Q96P66); type: cell-based
[5] = target: panel of 320 non-olfactory GPCRs (Homo sapiens, UniProt P21728); type: cell-based
Chain of panel of 320 non-olfactory GPCRs (Homo sapiens, UniProt P21728) (P21728 whole entry): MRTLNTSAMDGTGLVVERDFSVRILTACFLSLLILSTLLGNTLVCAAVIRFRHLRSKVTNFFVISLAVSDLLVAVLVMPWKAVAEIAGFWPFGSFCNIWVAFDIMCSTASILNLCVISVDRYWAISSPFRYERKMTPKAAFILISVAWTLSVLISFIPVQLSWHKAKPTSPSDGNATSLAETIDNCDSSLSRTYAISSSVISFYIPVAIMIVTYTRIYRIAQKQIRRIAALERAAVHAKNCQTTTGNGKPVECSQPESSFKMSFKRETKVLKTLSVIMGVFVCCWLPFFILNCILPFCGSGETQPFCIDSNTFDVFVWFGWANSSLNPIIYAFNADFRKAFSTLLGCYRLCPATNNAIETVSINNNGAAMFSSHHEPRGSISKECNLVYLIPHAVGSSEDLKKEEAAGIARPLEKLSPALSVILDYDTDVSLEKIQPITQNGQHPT

[6] = target: panel of 320 non-olfactory GPCRs (Homo sapiens, UniProt P25089); type: cell-based
[7] = target: panel of 320 non-olfactory GPCRs (Homo sapiens, UniProt O15218); type: cell-based
Chain of panel of 320 non-olfactory GPCRs (Homo sapiens, UniProt O15218) (O15218 whole entry): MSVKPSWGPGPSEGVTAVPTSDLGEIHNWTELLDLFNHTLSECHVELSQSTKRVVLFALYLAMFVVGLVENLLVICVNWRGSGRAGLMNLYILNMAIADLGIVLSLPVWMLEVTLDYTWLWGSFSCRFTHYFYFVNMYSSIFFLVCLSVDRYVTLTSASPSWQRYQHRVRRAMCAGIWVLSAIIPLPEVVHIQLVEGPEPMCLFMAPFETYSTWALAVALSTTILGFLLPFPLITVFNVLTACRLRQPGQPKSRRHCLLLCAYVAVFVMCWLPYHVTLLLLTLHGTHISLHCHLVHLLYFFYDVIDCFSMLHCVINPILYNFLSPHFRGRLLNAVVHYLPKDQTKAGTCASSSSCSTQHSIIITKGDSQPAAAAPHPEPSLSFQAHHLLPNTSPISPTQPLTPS

[8] = target: panel of 320 non-olfactory GPCRs (Homo sapiens, UniProt Q99527); type: cell-based
Chain of panel of 320 non-olfactory GPCRs (Homo sapiens, UniProt Q99527) (Q99527 whole entry): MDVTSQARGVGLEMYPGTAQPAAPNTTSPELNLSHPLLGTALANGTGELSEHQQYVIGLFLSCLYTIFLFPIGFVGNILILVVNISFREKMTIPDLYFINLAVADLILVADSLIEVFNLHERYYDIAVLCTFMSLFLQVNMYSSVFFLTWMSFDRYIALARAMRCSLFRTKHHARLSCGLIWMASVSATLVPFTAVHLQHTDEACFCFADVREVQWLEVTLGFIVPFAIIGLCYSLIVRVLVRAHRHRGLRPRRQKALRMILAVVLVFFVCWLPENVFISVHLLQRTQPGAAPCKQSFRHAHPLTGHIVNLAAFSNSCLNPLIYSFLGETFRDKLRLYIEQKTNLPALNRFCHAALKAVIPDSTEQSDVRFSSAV

[9] = target: panel of 320 non-olfactory GPCRs (Homo sapiens, UniProt P08912); type: cell-based
Chain of panel of 320 non-olfactory GPCRs (Homo sapiens, UniProt P08912) (P08912 whole entry): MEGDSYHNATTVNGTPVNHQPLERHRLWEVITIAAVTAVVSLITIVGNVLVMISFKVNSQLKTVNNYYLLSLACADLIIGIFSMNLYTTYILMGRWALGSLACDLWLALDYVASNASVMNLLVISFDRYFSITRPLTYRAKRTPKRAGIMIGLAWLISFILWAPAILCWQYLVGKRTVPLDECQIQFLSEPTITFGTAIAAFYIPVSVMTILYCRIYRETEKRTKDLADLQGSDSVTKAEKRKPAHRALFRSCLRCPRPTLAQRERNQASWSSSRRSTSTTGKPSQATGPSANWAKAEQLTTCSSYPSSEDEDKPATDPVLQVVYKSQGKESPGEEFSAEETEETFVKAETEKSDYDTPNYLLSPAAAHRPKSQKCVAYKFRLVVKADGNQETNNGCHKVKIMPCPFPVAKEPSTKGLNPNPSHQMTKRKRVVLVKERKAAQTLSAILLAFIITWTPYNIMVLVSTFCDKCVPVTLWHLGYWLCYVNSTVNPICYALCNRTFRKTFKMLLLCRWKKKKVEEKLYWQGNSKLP

[10] = target: panel of 320 non-olfactory GPCRs (Homo sapiens, UniProt Q99788); type: cell-based
[11] = target: panel of 320 non-olfactory GPCRs (Homo sapiens, UniProt O95838); type: cell-based
Chain of panel of 320 non-olfactory GPCRs (Homo sapiens, UniProt O95838) (O95838 whole entry): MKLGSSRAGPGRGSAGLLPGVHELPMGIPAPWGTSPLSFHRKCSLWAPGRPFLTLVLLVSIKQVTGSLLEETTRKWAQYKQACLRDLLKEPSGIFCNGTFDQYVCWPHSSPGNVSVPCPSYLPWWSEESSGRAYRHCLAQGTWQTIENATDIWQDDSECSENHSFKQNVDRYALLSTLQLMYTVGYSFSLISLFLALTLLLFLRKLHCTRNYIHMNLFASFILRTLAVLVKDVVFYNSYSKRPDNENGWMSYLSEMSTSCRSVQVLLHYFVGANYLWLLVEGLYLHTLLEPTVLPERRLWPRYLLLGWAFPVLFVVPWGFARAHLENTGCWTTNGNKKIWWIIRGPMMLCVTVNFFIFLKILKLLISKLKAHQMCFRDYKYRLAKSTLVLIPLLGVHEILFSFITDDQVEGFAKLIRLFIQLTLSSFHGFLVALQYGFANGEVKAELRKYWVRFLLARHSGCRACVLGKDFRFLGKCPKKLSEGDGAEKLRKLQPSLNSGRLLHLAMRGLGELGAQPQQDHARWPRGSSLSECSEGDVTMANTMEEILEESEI

[12] = target: panel of 320 non-olfactory GPCRs (Homo sapiens, UniProt P30518); type: cell-based
[13] = target: panel of 320 non-olfactory GPCRs (Homo sapiens, UniProt P21453); type: cell-based
Chain of panel of 320 non-olfactory GPCRs (Homo sapiens, UniProt P21453) (P21453 whole entry): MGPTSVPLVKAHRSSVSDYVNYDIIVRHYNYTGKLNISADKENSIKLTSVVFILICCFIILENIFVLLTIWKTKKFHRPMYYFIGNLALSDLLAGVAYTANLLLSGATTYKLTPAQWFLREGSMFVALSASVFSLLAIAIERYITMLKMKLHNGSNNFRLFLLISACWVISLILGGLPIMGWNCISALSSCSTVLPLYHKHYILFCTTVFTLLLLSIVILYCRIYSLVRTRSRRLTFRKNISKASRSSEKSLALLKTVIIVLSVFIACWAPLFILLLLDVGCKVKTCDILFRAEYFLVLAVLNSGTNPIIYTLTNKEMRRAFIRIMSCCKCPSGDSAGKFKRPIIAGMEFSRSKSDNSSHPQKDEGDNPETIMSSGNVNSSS

[14] = target: panel of 320 non-olfactory GPCRs (Homo sapiens, UniProt Q96RI9); type: cell-based
Chain of panel of 320 non-olfactory GPCRs (Homo sapiens, UniProt Q96RI9) (Q96RI9 whole entry): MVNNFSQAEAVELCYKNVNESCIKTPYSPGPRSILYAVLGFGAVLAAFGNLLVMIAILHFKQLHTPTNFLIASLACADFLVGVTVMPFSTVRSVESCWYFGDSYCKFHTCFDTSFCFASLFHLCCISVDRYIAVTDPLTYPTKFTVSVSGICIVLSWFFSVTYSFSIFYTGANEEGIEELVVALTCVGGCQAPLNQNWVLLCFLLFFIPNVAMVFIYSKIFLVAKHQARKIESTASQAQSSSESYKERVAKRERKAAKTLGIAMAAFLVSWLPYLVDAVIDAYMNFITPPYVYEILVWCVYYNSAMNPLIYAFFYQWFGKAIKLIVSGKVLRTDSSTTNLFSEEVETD

[15] = target: panel of 320 non-olfactory GPCRs (Homo sapiens, UniProt P25116); type: cell-based
Chain of panel of 320 non-olfactory GPCRs (Homo sapiens, UniProt P25116) (P25116 22-425): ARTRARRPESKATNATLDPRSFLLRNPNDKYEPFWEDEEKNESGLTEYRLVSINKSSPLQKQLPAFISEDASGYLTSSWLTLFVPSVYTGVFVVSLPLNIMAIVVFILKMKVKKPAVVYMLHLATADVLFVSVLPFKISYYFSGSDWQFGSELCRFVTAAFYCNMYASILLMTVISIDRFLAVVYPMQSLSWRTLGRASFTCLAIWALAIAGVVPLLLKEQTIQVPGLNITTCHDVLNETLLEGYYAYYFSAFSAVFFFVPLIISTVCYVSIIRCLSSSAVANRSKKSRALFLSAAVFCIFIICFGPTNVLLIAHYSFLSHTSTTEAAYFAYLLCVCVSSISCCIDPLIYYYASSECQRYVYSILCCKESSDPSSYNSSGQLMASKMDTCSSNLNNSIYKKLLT

[16] = target: panel of 320 non-olfactory GPCRs (Homo sapiens, UniProt Q96LB1); type: cell-based
Chain of panel of 320 non-olfactory GPCRs (Homo sapiens, UniProt Q96LB1) (Q96LB1 whole entry): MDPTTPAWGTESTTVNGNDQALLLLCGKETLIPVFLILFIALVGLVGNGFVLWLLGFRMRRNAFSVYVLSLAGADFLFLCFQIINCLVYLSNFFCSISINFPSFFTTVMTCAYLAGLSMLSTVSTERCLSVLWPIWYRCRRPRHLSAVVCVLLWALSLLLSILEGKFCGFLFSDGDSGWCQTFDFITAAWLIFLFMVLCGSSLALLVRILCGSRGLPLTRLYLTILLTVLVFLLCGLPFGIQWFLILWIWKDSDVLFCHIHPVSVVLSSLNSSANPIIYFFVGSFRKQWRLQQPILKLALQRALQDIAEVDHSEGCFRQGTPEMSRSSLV

[17] = target: panel of 320 non-olfactory GPCRs (Homo sapiens, UniProt Q8NDV2); type: cell-based
[18] = target: panel of 320 non-olfactory GPCRs (Homo sapiens, UniProt Q5T6X5); type: cell-based
[19] = target: panel of 320 non-olfactory GPCRs (Homo sapiens, UniProt Q16602); type: cell-based
Chain of panel of 320 non-olfactory GPCRs (Homo sapiens, UniProt Q16602) (Q16602 23-461): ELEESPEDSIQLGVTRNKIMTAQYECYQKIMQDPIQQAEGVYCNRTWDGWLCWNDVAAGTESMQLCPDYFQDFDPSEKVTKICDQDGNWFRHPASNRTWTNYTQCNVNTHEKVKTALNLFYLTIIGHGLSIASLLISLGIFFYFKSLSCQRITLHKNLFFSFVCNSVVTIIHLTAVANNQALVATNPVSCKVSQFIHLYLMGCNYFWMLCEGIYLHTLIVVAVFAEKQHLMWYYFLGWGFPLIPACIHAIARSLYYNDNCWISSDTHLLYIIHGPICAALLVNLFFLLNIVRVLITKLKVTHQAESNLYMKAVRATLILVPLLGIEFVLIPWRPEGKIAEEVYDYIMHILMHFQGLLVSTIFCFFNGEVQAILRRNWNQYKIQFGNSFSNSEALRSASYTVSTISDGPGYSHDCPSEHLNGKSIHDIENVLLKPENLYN

[20] = target: panel of 320 non-olfactory GPCRs (Homo sapiens, UniProt P30874); type: cell-based
Chain of panel of 320 non-olfactory GPCRs (Homo sapiens, UniProt P30874) (P30874 whole entry): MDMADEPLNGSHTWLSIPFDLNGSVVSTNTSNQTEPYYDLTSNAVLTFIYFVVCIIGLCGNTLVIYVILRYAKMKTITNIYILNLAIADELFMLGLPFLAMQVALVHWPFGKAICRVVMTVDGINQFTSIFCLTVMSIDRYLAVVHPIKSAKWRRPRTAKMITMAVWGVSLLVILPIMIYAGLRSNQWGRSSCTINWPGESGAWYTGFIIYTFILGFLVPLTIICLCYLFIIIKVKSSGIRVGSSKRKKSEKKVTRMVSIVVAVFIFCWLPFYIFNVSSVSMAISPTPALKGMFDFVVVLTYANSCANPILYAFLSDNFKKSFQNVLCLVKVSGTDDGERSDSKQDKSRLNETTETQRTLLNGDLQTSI

[21] = target: panel of 320 non-olfactory GPCRs (Homo sapiens, UniProt Q96P68); type: cell-based
Chain of panel of 320 non-olfactory GPCRs (Homo sapiens, UniProt Q96P68) (Q96P68 whole entry): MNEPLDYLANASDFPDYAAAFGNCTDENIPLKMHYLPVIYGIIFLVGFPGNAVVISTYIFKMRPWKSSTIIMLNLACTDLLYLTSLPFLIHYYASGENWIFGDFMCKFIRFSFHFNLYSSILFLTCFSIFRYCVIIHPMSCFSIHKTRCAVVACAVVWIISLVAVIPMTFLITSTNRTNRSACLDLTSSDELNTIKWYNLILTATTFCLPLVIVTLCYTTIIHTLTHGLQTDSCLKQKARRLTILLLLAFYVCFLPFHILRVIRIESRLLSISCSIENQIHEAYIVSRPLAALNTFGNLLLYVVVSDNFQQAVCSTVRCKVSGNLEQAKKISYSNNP

mice [22] = test system: mice
Method: For all behavioral tests, the experimenter was always blind to treatment. Animals were first habituated for 30-60 min in Plexiglas cylinders and then tested 30 min after i.p. or i.t. injection of the compounds. The thermal (Hargreaves, hotplate and tail flick) and ambulatory (rotarod) tests were conducted as described[96]. Briefly, hindpaw thermal sensitivity was measured with a radiant heat source (Hargreaves) or on a hotplate at 52 °C. For the tail flick assay, sensitivity was measured by immersing the tail into a 50 °C water bath. For the ambulatory (rotarod) test, before testing with any compound, mice underwent three trainings on three consecutive days until they reach 300 sec. Each training has three sessions of five min each. Therapeutic window was calculated as the ratio of the minimum dose of side effect phenotype to the minimum dose of analgesic phenotype.

mice [23] = test: Catalepsy test, vertical wire mesh; type: in vivo, mouse; settings: for Individual animal values (FigS11d): test not printed on the sheet
Method: Thirty min after an i.p. injection of the compounds, mice were placed on a vertical wire mesh and the latency to move all four paws was recorded.

mice [24] = test: Acetone test, cold allodynia after spared nerve injury; type: in vivo, mouse
Method: Mice were placed on a wire mesh and thirty min after an i.p. injection of the compounds we applied a drop (50 μL) of acetone on the ventral aspect of the hindpaw, 5 times every 30 sec. We recorded the number of nocifensive behaviors (paw lifts/licks/shakes/bites) over the 5 applications.

mice [25] = test: Tail flick, 50 °C water bath; type: in vivo, mouse; settings: for analgesic response normalised to baseline, WT vs CB1R KO (Figure5d), individual animals / Response relative to Baseline, individual animals (FigS11c): 0.2 mg/kg; for Response relative to Baseline, individual animals (FigS11c): test not printed on the sheet

COC(=O)[C@@](C)(NC(=O)c1cc(C)n(-c2cccc(C(F)(F)F)c2)n1)c1cccs1 [‘1350]
GTP turnover, normalised (FUB about 100) ([1]; Gi2): 96.8998 and 91.3876 and 87.4526 and 89.8295 and 89.8906 and 82.6279 | GTP turnover, normalised (FUB about 100) ([1]; Gi3): 81.2301 and 82.2228 and 81.0231 and 89.3188 and 82.6055 and 85.3572 | GTP turnover, normalised (FUB about 100) ([1]; Goa): 86.5272 and 96.4818 and 93.6031 and 96.9291 and 99.611 and 94.5957 | GTP turnover, normalised (FUB about 100) ([1]; first block, G protein not printed (Gi2, Gi3, Goa follow)): 83.1663 and 86.2553 and 85.2024 and 81.617 and 83.7026 and 83.2158 | Fold of Basal RLU [2]: 0.7 and 0.8 and 0.6 and 0.9 | Fold of Basal RLU [3]: 5.2 and 4.9 and 5.3 | Fold of Basal RLU [4]: 1.1 fold and 0.8 fold and 0.9 fold | Fold of Basal RLU [5]: 0.9 and 1.1 and 0.8 | Fold of Basal RLU [6]: 1 fold and 1.1 fold | Fold of Basal RLU [7]: 1.1 fold and 0.8 fold and 1.4 fold | Fold of Basal RLU [8]: 1.2 and 1.1 and 0.9 | Fold of Basal RLU [9]: 0.9 fold and 1.4 fold and 1.1 fold and 1.7 fold | Fold of Basal RLU [10]: 1.1 and 1 and 1.2 | Fold of Basal RLU [11]: 1.1 fold and 1.5 fold and 1 fold and 0.8 fold | Fold of Basal RLU [12]: 1.1 fold and 0.9 fold and 1.2 fold and 1.3 fold | Fold of Basal RLU [13]: 0.9 fold and 1 fold and 0.8 fold and 0.7 fold | Fold of Basal RLU [14]: 1.2 and 1.1 and 1.5 | Fold of Basal RLU [15]: 1 fold and 1.1 fold and 1.3 fold | Fold of Basal RLU [16]: 1.7 fold and 1.5 fold and 1 fold and 1.1 fold | Fold of Basal RLU [17]: 1.6 fold and 1.8 fold and 1.3 fold | Fold of Basal RLU [18]: 0.7 fold and 0.9 fold and 1.1 fold | Fold of Basal RLU [19]: 0.4 and 0.7 and 0.6 | Fold of Basal RLU [20]: 0.7 and 0.8 and 0.6 | Fold of Basal RLU [21]: 1.1 fold and 1.3 fold and 1.6 fold | therapeutic window, Acetone (mice [22]; Figure 6e, vs rotarod): 10 | therapeutic window, Hot Plate (mice [22]; Figure 6e, vs rotarod): 5 | therapeutic window, Tail Flick (mice [22]; Figure 6e, vs rotarod): 5 | therapeutic window, analgesia vs catalepsy (mice [22]; Figure 6f): at least a ten-fold window | therapeutic window, Acetone (mice [22]; Figure 6d, vs open field): 4 | therapeutic window, Hot Plate (mice [22]; Figure 6d, vs open field): 2 | therapeutic window, Tail Flick (mice [22]; Figure 6d, vs open field): 2 | therapeutic window, analgesia vs hypolocomotion, sedation, catalepsy (mice [22]; mice): 2-10 fold and 2-20 fold | catalepsy (Figure6c), individual animals (mice [23]; 0.2 mg/kg dose): 7 and 4 and 15 and 2 (2×) | catalepsy (Figure6c), individual animals (mice [23]; 0.5 mg/kg dose): 2 and 10 and 30 and 20 and 5 and 0.5 and 2.4 and 2.2 and 2.3 and 0.7 and 1 and 2.7 and 2.9 and 2.1 and 1.4 | catalepsy (Figure6c), individual animals (mice [23]; 1 mg/kg dose): 16 and 5 and 4 and 30 and 6 | catalepsy at a sedating dose (mice [23]; 1 mg/kg i.p.): non-significant, but nevertheless, increased latency to move the paws | catalepsy in CB1R knockout (mice [23]; 1 mg/kg, CB1R KO mice): eliminated this minimal cataleptic effect | catalepsy in CB2R knockout (mice [23]; 1 mg/kg, CB2R KO vs wildtype): statistically significant increase in catalepsy | Individual animal values (FigS11d) (mice [23]; CB1R KO mice, 1 mg/kg): 3.1 and 2.8 and 2.7 and 1.8 | Individual animal values (FigS11d) (mice [23]; CB2R KO mice, 0.2 mg/kg): 2.2 and 2.7 and 4 and 4.2 and 2.8 | Individual animal values (FigS11d) (mice [23]; CB2R KO mice, 0.5 mg/kg): 3.3 and 4.3 and 29.3 and 28 and 5.6 | Individual animal values (FigS11d) (mice [23]; CB2R KO mice, 1 mg/kg): 40 and 2 | Individual animal values (FigS11d) (mice [23]; WT mice, 0.2 mg/kg): 7 and 4 and 15 and 2 | Individual animal values (FigS11d) (mice [23]; WT mice, 0.5 mg/kg): 2.4 and 2.2 and 2.3 and 0.7 and 1 and 2.7 and 2.1 and 1.4 and 2 and 10 and 30 and 20 and 5 | Individual animal values (FigS11d) (mice [23]; WT mice, 1 mg/kg): 16 and 5 and 4 and 30 and 6 | dose at which catalepsy starts (mice [23]; i.p.): 1 mg/kg | catalepsy, latency to move all four paws (mice [23]; i.p., ‘1350 at 0.2 or 0.5 mg/kg, haloperidol 1.0 mg/kg): did not induce cataleptic behavior | acetone test response after spared nerve injury (Figure5b), individual animals (mice [24]; Dose 0.05 mg/kg): 48 and 66 and 108 and 56 and 46 | acetone test response after spared nerve injury (Figure5b), individual animals (mice [24]; Dose 0.1 mg/kg): 38 and 48 and 28 and 64 and 18 | acetone test response after spared nerve injury (Figure5b), individual animals (mice [24]; Dose 0.2 mg/kg): 26 and 54 and 32 | lowest dose with significant anti-allodynia, acetone test (mice [24]; i.p.): 0.05 mg/kg | effect on acetone-induced nocifensive behaviors (mice [24]; spared nerve injury, i.p.): strongly reduced spared nerve injury-induced cold allodynia | tail flick latency on cotreatment with morphine (mice [25]; 0.05 and 0.1 mg/kg plus morphine 3.0 mg/kg i.p.): significantly longer tail-flick latencies than did mice injected with morphine alone | effect of CB1R knockout on analgesia, tail flick (mice [25]; CB1R KO mice): completely blocked the analgesic effect | analgesic response normalised to baseline, WT vs CB1R KO (Figure5d), individual animals (mice [25]; CB1R KO mice): 106.345 and 98.767 and 101.721 and 166.196 and 107.501 | Response relative to Baseline, individual animals (FigS11c) (mice [25]; CB2R KO mice): 164.985 and 191.573 and 174.006 and 295.549 and 230.504 and 308.843 and 149.555 and 202.493 and 243.323 and 186.825 | tail flick response normalised to baseline (Figure4a), individual animals (mice [25]; Dose 0.05 mg/kg): 119.013 and 100.323 and 160.799 and 150.926 and 127.123 | tail flick response normalised to baseline (Figure4a), individual animals (mice [25]; Dose 0.1 mg/kg): 155.51 and 183.368 and 185.307 and 158.155 and 125.713 | tail flick response normalised to baseline (Figure4a), individual animals (mice [25]; Dose 0.2 mg/kg): 215.281 and 170.849 and 208.757 and 269.409 and 238.025 | tail flick response normalised to baseline (Figure4a), individual animals (mice [25]; Dose 0.5 mg/kg): 229.386 and 270.644 and 271.701 and 225.86 and 268.175 | analgesic response normalised to baseline, WT vs CB1R KO (Figure5d), individual animals (mice [25]; WT mice): 175.053 and 136.358 and 121.523 and 181.234 and 162.69 and 195.08 and 109.284 and 151.687 and 140.809 and 142.663 | Response relative to Baseline, individual animals (FigS11c) (mice [25]; WT mice): 303.35 and 281.096 and 250.176 and 198.641 and 149.684 and 198.173 and 421.644 and 117.592 and 166.55 and 75.1933 | lowest dose with significantly increased tail flick latency (mice [25]; i.p., 30 min after injection): 0.1 mg/kg
